Data on 11 compounds can be found in ChEMBL document CHEMBL1201862, “PubChem BioAssay data set” (2004).

Assay [1] relates to Streptococcus sp. 'group A'. Description: Streptococcus pyogenes SK(-)GAS viability under kanamycin – luminescence, BacTiterGlo, confirmation, counter-screen for streptokinase expression inhibitor project, dose response (AID 1900). Format: functional, organism-based. For orientation: The purpose of a counterscreen is to sort out artefacts and off-target activity.
The nature of assay [2]: MIN6 cell viability loss – mouse insulinoma, cytotoxicity control, dose response (AID 2122).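 Further: confirmatory high-throughput counterscreen run to flag cytotoxic compounds.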 The format is functional.
A short description of assay [3]: decrease of insulin promoter-GFP reporter – imaging, high-content screening, mouse beta cells (AID 1628). The format is functional. The following applies: MIN6.
In the next assay the test system is Streptococcus. Description: GAS UMAA2166 growth inhibition – luminescence, BacTiterGlo, counter-screen for streptokinase expression inhibitor project, dose response (AID 1915).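 Further: potency for reduction of bacterial viability or growth.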 The format is functional, organism-based.
In assay [4] the target is Dual specificity tyrosine-phosphorylation-regulated kinase 1A (Rattus norvegicus, UniProt Q63470). Format: biochemical, Homo sapiens.
Assay [5] concerns the target Glucose-6-phosphate 1-dehydrogenase (Homo sapiens, UniProt P11413). The assay can be described thus: inhibition of Homo sapiens G6PD, dose series – biochemical, fluorescence, selectivity assay for P. falciparum G6PD inhibitor project, dose response (AID 504792). Format: functional.
Assay [6] deals with T1, Short transient receptor potential channel 4 (Mus musculus, UniProt Q9QUQ5).
T1 sequence (Q9QUQ5 whole entry): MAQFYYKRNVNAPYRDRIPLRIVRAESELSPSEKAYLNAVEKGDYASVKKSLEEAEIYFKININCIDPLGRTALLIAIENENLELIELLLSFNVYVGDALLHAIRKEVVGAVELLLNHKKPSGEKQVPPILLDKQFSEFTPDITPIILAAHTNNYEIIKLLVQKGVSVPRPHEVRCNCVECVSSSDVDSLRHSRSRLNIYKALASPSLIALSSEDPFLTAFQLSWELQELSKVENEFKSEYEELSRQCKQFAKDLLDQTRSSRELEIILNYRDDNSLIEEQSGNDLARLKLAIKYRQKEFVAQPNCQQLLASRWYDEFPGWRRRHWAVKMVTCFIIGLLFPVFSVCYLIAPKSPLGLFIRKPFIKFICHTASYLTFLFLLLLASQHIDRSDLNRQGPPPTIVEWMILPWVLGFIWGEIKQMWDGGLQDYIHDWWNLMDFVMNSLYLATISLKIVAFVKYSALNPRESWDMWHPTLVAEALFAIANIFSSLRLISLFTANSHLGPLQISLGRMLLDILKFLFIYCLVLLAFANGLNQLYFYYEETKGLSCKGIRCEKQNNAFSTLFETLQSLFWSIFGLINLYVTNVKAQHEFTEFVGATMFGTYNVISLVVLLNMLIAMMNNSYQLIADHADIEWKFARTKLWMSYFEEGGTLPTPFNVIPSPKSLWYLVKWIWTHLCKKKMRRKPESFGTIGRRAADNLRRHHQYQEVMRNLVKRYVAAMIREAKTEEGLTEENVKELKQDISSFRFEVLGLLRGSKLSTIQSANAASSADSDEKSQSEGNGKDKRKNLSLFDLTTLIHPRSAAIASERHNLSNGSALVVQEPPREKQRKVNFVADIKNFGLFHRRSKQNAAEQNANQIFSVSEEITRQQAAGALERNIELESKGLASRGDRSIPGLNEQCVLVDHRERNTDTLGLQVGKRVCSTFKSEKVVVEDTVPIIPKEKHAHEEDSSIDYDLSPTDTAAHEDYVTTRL
The assay can be described thus: calcium entry via TRPC4 opening agents – cell-based, HEK293 TRPC4/mu-opioid, Fluo-4 calcium, dose response (AID 434937). Format: functional.

In a further assay the target is T2, Streptokinase A (Streptococcus pyogenes serotype M1, UniProt P10520).
T2 sequence (P10520 whole entry): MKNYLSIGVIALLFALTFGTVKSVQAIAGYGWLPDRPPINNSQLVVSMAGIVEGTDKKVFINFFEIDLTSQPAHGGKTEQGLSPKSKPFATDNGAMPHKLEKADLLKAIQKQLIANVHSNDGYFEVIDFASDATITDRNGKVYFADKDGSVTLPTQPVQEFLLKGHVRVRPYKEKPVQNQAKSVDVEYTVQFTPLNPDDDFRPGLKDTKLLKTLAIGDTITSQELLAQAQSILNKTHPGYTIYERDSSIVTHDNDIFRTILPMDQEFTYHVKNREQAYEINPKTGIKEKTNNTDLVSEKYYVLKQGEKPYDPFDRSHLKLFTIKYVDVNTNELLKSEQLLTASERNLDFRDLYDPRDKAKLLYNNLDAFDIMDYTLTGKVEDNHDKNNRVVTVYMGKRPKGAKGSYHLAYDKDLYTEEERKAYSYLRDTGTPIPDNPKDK
Description: viability-normalized secreted streptokinase activity reduction – plasminogen activation absorbance, OD405, dose response (AID 1914).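 Further: secreted streptokinase activity via plasminogen activation per viability signal from cell pellet.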 Format: functional, Streptococcus pyogenes M1 GAS.

Assay [7] in a line: blockers of HIV-1 envelope-mediated cell-cell fusion – cherry-pick, dose response (AID 652057). Format: functional, cell-based.
Assay [8] in a line: HIV-1 AD8 envelope cell-cell fusion blockers – cherry-pick, dose response (AID 652062).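 Further: luciferase signal from cell-cell fusion driven by HIV-1 clade B AD8 Env; potency is for inhibitors of fusion seen as a drop in luminescence.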 The format is functional, cell-based.
Assay [9] can be described thus: viability loss in CEM21 cells – cell-based, CellTiter-Glo luminescence, cherry-picked, cytotoxicity control for viral fusion inhibitor project, dose response (AID 652042).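 Further: potency for signal decrease meaning cytotoxicity.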 The format is functional. (In general: ATP-based viability assays read luminescence as a measure of living cells.)
The target in assay [10] is T3, Ubiquitin-conjugating enzyme E2 N (Homo sapiens, UniProt P61088).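 Further: Dose-response confirmation in a TR-FRET assay detecting UBC13-driven polyubiquitin chain formation, inhibition measured.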
T3 sequence (P61088 whole entry): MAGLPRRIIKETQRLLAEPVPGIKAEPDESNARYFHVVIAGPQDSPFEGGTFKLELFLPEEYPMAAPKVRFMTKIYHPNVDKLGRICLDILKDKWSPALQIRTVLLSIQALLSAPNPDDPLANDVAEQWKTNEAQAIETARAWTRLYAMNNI
Format: functional.

Assay [11] is described as follows: off-target signal loss in HeLa-CEM21 co-culture – HeLa F-luc CTL cells, cherry-picked, counter-screen for HIV-1 Env fusion inhibitor project, dose response (AID 652040).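 Further: potency for signal decrease marking cytotoxic or nonspecific inhibition.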 The format is functional, cell-based.
Assay [12] can be described thus: blockers of HIV-1 ZM109 envelope-driven cell-cell fusion – HeLa effector, CEM target cells, luciferase, cherry-pick, dose response (AID 652058).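 Further: luciferase signal from HIV-1 Env mediated cell-cell fusion of effector and target cells.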 The format is functional, cell-based.
The next assay has as its target Genome polyprotein (dengue virus type 2, UniProt P29990). Description: flavivirus cap methylation enzyme inhibition – biochemical, confirmation dose response, primary screen (AID 588689). The format is functional.
Assay [13] deals with T4, Endoribonuclease toxin MazF (Escherichia coli K-12, UniProt P0AE70).
T4 sequence (P0AE70 whole entry): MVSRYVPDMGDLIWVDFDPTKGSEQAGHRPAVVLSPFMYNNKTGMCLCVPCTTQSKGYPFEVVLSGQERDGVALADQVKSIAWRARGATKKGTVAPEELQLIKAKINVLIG
Description: substrate-only fluorescence increase artefacts – biochemical, single-stranded RNase substrate, counter-screen for MazEF activator project, dose response (AID 588502). Format: functional.

The target in assay [14] is T4, Endoribonuclease toxin MazF. Description: activation of MazEF endoribonuclease cleavage – biochemical, fluorescence, single-stranded RNA substrate, uHTS hits, dose response (AID 588481). Format: functional.
Assay [15] concerns the target Induced myeloid leukemia cell differentiation protein Mcl-1 (Homo sapiens, UniProt Q07820). Format: functional.
The target of assay [16] is T5, Zinc finger protein mex-5 (Caenorhabditis elegans, UniProt Q9XUB2).
T5 sequence (Q9XUB2 whole entry): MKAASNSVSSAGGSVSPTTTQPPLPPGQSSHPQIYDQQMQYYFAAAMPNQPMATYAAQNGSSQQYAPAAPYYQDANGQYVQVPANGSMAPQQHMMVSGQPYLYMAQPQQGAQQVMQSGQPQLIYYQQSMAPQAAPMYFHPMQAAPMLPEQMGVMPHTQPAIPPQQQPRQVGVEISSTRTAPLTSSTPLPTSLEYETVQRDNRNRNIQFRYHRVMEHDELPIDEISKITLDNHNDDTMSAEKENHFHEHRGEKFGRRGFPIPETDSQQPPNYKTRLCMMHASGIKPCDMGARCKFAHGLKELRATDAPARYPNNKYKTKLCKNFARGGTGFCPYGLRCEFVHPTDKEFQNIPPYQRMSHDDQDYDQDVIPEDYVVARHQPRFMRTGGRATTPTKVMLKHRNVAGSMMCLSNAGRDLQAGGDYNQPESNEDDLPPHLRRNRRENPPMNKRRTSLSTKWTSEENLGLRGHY
The assay can be described thus: potency of MEX-5 RNA-binding blockers – biochemical, C. elegans, fluorescence polarization, dose response (AID 1960). In general terms: Polarisation of emitted light reports the rotation of a fluorescent probe.

The target in assay [17] is T6, RNA-binding protein pos-1 (Caenorhabditis elegans, UniProt G5EF15).
T6 sequence (G5EF15 whole entry): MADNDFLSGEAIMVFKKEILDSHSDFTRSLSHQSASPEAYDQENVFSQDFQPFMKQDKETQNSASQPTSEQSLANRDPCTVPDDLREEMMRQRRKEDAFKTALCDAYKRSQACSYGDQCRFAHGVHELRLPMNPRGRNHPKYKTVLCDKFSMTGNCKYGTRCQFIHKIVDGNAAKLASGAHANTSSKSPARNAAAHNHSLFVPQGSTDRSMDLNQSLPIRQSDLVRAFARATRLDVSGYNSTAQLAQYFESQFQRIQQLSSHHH
Description: disruptors of C. elegans POS-1 RNA interaction – biochemical, fluorescence polarization, dose response (AID 1964).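 Further: purified POS-1 fused to maltose binding protein made in E. coli; potency of compounds blocking POS-1 binding to fluorescent RNA.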

For assay [18], the target named is T7, Microphthalmia-associated transcription factor (Homo sapiens, UniProt O75030).
T7 sequence (O75030 whole entry): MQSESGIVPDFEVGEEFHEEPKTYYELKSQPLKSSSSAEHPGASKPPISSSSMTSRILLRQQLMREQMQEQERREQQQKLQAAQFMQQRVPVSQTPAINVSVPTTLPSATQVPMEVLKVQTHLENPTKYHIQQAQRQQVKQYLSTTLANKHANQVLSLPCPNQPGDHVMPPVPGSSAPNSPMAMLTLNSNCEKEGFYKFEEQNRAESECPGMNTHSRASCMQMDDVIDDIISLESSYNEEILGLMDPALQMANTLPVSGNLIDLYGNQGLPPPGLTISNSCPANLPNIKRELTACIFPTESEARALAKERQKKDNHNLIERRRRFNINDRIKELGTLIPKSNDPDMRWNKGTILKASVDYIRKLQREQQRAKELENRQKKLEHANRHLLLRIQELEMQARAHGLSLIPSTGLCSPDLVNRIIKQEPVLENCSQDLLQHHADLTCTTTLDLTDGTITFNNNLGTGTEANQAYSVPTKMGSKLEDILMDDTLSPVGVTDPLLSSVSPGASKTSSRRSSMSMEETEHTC
Description: reducers of TRPM1 reporter luminescence, concentration series – cell-based, SK-MEL-5, cherry-picked, set 3, MITF inhibitor project, dose response (AID 493073).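 Further: SK-MEL-5 melanoma cells with luciferase driven by the MITF target TRPM1 promoter.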 The format is functional.

Assay [19] has as its system BJ. Description: cells. Format: functional, cell-based. The following applies: Homo sapiens.
Assay [20] concerns BJ. Description: BJ-TERT fibroblast viability loss – cell-based, RAS-independent, luminescence, dose response (AID 1933). To be noted: Homo sapiens. Format: functional.
Assay [21] in a line: DRD fibroblast viability loss – cell-based, non-viral oncogenic, luminescence, dose response (AID 1934). Format: functional. To be noted: Homo sapiens.
Assay [22] has as its system BJ. Description: BJ-TERT-LT-ST fibroblast viability loss – cell-based, RAS-independent, luminescence, dose response (AID 1935).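 Further: BJ fibroblasts immortalized with TERT plus LT and ST oncogenes.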 Format: functional. To be noted: Homo sapiens.

SMILES strings stand for the structures. The source made the active and inactive calls.

Chain of Glucose-6-phosphate 1-dehydrogenase (P11413 whole entry): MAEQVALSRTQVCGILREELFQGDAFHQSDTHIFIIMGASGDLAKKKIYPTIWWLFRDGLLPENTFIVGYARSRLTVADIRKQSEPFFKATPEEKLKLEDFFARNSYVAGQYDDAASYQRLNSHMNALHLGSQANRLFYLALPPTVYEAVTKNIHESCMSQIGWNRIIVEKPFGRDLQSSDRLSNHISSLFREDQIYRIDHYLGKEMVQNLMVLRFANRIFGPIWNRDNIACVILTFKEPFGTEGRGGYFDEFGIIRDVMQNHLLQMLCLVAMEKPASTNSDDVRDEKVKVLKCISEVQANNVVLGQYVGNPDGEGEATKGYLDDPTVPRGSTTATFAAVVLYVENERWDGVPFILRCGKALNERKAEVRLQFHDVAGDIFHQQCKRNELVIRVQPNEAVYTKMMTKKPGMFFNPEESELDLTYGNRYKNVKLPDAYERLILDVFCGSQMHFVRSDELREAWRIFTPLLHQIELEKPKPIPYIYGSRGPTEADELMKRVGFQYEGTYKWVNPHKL
Chain of Genome polyprotein (P29990 2492-3391 limits assumed): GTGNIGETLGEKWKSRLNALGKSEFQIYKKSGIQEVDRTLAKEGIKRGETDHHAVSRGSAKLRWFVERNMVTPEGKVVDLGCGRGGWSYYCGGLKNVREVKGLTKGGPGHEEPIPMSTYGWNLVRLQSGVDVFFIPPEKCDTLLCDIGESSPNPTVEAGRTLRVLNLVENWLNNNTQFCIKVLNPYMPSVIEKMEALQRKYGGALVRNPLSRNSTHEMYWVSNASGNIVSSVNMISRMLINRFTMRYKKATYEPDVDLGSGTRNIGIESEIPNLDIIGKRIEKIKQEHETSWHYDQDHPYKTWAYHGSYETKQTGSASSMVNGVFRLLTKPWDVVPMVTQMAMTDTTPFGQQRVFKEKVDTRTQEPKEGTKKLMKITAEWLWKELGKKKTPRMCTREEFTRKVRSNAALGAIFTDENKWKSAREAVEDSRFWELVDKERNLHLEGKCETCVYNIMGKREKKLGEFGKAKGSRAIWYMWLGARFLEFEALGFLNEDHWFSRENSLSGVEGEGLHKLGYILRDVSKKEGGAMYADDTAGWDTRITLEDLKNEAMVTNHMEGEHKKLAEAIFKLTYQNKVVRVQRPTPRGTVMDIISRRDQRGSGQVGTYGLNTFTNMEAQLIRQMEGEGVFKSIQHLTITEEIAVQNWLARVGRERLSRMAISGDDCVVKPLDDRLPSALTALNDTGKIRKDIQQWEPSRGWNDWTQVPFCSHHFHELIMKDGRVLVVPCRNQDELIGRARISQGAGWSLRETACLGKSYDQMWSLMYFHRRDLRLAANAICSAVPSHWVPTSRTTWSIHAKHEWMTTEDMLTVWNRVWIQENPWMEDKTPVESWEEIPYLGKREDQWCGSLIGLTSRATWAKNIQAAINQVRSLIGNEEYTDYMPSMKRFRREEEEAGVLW
Chain of Induced myeloid leukemia cell differentiation protein Mcl-1 (Q07820 whole entry): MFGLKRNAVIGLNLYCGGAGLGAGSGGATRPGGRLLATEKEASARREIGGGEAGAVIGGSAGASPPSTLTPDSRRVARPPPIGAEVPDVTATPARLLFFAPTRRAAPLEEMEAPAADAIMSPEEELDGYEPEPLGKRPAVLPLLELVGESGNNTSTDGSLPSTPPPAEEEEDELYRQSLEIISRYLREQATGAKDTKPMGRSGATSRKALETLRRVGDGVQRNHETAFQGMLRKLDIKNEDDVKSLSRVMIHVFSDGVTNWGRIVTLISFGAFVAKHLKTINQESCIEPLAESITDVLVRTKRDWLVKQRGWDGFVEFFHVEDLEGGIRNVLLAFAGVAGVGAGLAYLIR

On to `Cc1sc2nc(-c3ccccn3)nc(O)c2c1-c1ccccc1`, for which the EC50 in assay [1] is 1.25 µM (active); in the assay with Streptococcus, 23.9 µM (active). Further, the IC50 in assay [2] was 5.43 µM (active); in assay [3] it was 4.11 µM (active).

For the compound `O=C1N=C(N2CCc3ccccc3C2)S/C1=C\c1ccc(O)cc1`, the AC50 in assay [4] was 0.737 µM (active).

For `Cc1ccc(S(=O)(=O)SCCCSS(=O)(=O)c2ccc(C)cc2)cc1`, in assay [5], the IC50 is 26.7 µM (inactive).

Take `COc1cc(OC)cc(C(=O)NC(=S)NNC(=O)Cc2cccs2)c1`: the EC50 in assay [6] was 10.6 µM (active); in [1], 0.814 µM (active); on Streptokinase A, > 150 µM (not active); with Streptococcus, 11.6 µM (active).

For `CCC(C)N(CCNC(=O)c1ccc2c(c1)NC(=O)c1ccccc1S2)C1CCCCC1` (stereo unspecified), the AC50 in [7] was 0.758 µM (active); in assay [8] it was 3.82 µM (active); in assay [9], 45.1 µM (active); in assay [11] it was 1.09 µM (active); in assay [12], 0.923 µM (active). The IC50 in [10] is > 20 µM (inactive); in assay [5], > 80 µM (inactive).

In the case of `O=C1/C(=C/c2ccc3c(c2)OCO3)Oc2cc(OCC(=O)N3CCC[C@H]3C(=O)O)ccc21`, the AC50 in [4] is 4.59 µM (active).

For `COC(=O)CCC(=O)OC1(C)C(=O)C2=CN(c3ccccc3)C(c3ccc(OC)cc3)=CC2=C(Br)C1=O` (stereo unspecified), the IC50 is > 100 µM (active) at Genome polyprotein and 42.1 µM (inactive) in assay [5].

Turning to `Cc1cc(O)nc(N/N=C/c2cc(C)n(CC(F)(F)F)c2C)n1`, the IC50 was 11.2 µM (inactive) in assay [2] and 2 µM (active) in assay [3].

`COC(=O)C1=C(C)N(C)C(C)=C(C(=O)OC)C1c1ccccn1`: the figures for the EC50 in assay [13] and in assay [14] were 56.4 µM (inactive) and > 99 µM (inactive), respectively.

In the case of `O=C1C(=Cc2cccn2-c2ccccc2)C(=O)c2ccccc21`, the EC50 in [13] is 60.7 µM (inactive); in [16], 175 µM (active); in assay [14], > 99 µM (inactive); in assay [17], 68.6 µM (active). In addition, the IC50 in assay [15] was 4.55 µM (active).

Take `Cc1cc(-n2c(C)cc(C(=O)CCl)c2C)no1`: the AC50 in assay [18] was 5.5 µM (active). The EC50 is 2.76 µM (active) in the assay with BJ [19], 4.75 µM (inconclusive) in the assay with BJ [20], 10.9 µM (inconclusive) in assay [21] and 1.91 µM (inconclusive) in the assay with BJ [22]. The IC50 in assay [2] is 1.66 µM (active); in assay [3], 3.25 µM (active).

The term EC50 denotes the concentration at which the effect is half-maximal. A word on the IC50: it is the concentration at which inhibition is half-maximal. As usually defined, the AC50 is the midpoint of the concentration-response curve, whichever way the signal moves.
